# According to patent US12226450B2, “Peptides and methods for treating disease” (OP-T LLC, priority 2019, dated 2025):
# Where no end group is shown, it is not given here.
# Assays:
# diabetic dogs = assay: Safety in treated diabetic dogs: blood counts, chemistry panels, adverse effects; format: in vivo, dog
# Description: Five diabetic dogs including 4 new onset and 1 long-term, (diagnosis greater than 3 years) were recruited into a test case study. The dogs were enrolled at Colorado State University Veterinary Hospital (CSU-VH), Fort Collins, CO for the study. Each dog was assessed by a Board-Certified Veterinarian. Blood samples were collected from each dog and analyzed by chemistry panels to determine general health, as well as assessed by complete physical examination. The dogs were each confirmed diabetic, blood glucose ranging from 300-600 mg/dl but were generally in good health otherwise. One dog was diagnosed with hypertension, and two dogs had eye problems, partial blindness and the long-term dog was completely blind from diabetes.
# Breeds were varied and sizes ranged from 8 to 27 kilos. Four of the dogs had been diagnosed for 3 months or less, 1 dog was diagnosed for 3.5 years. All dogs were receiving daily insulin treatments. The route of administration was IV infusion of SEQ ID NO. 13 over 30 minutes at 2 mg/kg on Days 0, 4, 8 and then weekly thereafter for a total of 8 weeks. The dogs were treated with the dog-sequence (SEQ ID NO: 13—VLRWAPKGYYTISSN); acetate salt form; brought up in sterile PBS for injection; injection was done as a slow infusion over 30 minutes. […] The dog diagnosed for 3.5 years experienced an improvement of time-in-range (percentage of a 24-hour period that blood glucose ranged between 80 and 160) from 10% to 80% for 5 consecutive days in the 5th week and achieved this for the last 3 test weeks. Typical responses in all five dogs was that 3-5 days post treatment improvements in blood glucose occurred. For example, blood glucose would move from 400 to 120, remain stable for 2 days but return to elevated levels. In all the treated dogs, glucose spikes were at lower levels, 300 mg/dl as a high, compared to >500 mg/dl prior to treatment. In fact, prior to treatment, none of the dogs recorded blood glucose levels less than 350. During treatment dogs were at 200 mg/dl or lower the majority of the time and in many cases were at 150 mg/dl or less.
# Prior to treatment blood samples were analyzed for blood glucose levels and Th40 cell percentages in peripheral blood. These pre-treatment Th40 cell levels and blood glucose levels can be seen in FIGS. 15, 16, and 17. In FIG. 15, controls are blood samples from test beagles used by CSU-VH and were all confirmed non-diabetic (i.e. not diabetic). […] On day 0, prior to the first treatment, blood was collected from leg vein and analyzed for Th40 cell percentages. […] Samples were analyzed for Th40 cells by flow cytometry. Furthermore, isolated blood was processed to obtain lymphocytes. […] The percentage of CD4+CD40+ as a subset of total CD4+ cells was determined and graphed. […]
# NOD mice [1] = assay: Development of diabetes in NOD mice treated with CD154 peptide fragments; format: in vivo, mouse; conditions: 25 ug (1 mg/kg) tail vein weekly from 6 weeks of age; diabetes = blood glucose greater than 250 mg/dL for three consecutive days
# Description: (§1) Peptides were designed based on the amino acid sequence of mouse CD154 protein (SEQ ID NO:1) in the SwissPro database. […] Weekly after the initial injection, another 25 ug of peptide (or 100 ul of PBS in the case of the Control mice) was injected into the tail vein. At 10 weeks of age, mice were monitored for diabetes, as indicated by a blood glucose level greater than 250 mg/dL for three consecutive days. During this time, blood was also taken from the tail vein, or by sub-mandibular venal puncture, and the level of CD4+ and CD8+ cells determined by flow cytometry using antibodies for CD4 protein and CD8 protein.
# CD4+ and CD8+ cells = assay: CD4/CD8 ratio in blood of peptide-treated NOD mice by flow cytometry; format: in vivo, mouse; conditions: 25 ug tail vein weekly
# Description: as §1
# [2] = test system: CD3+CD4+CD40+(Th40) splenic cells; assay: Inflammatory cytokines in cultured Th40 splenic cells from ApoE−/− mice; format: cell-based, mouse; conditions: overnight culture, varying concentrations, compared to the untreated cells
# Description: FIG. 24 provides a graph showing that different concentrations of peptide of SEQ ID NO:46 affects or influences levels of IL-2, IFNγ, and IL-17A. In this study, CD3+CD4+CD40+(Th40) splenic cells were purified from ApoE^−/− with cardiovascular disease. The cells were cultured overnight in the absence/presence of varying concentrations of KGYY6 peptide.
# NOD mice [3] = assay: Hyperglycemia in diabetic NOD mice treated with KGYY-15; format: in vivo, mouse; conditions: control treatments, blood glucose between 250-400 mg/dl
# Description: In this study, NOD mice, blood glucose between 250-400 mg/dl were treated with KGYY-15. Control mice were treated with MR1 an anti-CD154 antibody or scrambled 15-mer peptide (SEQ ID NO: 17). KGYY-15 (SEQ ID NO: 11) reduced blood glucose in 57% of mice treated, the controls MR1 and scrambled 15-mer peptide had no effect.
# [4] = diabetic dogs, IV infusion 2 mg/kg
compound,measurement,setting,value
"VLRWAPKGYYTISSN [SEQ ID NO: 13, VLRWAPKGYYTISSN]",adverse effects,diabetic dogs; [4],None of the dogs experienced any adverse effects
same,chemistry panel numbers,diabetic dogs; [4],normal
same,impact on WBC and RBC,diabetic dogs; [4],no negative impacts
same,blood chemistry panels versus samples prior to treatment,diabetic dogs; each improved from blood samples prior to treatment,normal levels on most parameters
VLQWAKKGYYTMK (not fully specified (C-terminus)) [13-mer peptides],development of diabetes,NOD mice [1],significant effects on the development of diabetes
"CSCC[C@H](NC(=O)[C@@H](NC(=O)[C@H](Cc1ccc(O)cc1)NC(=O)[C@H](Cc1ccc(O)cc1)NC(=O)CNC(=O)[C@H](CCCCN)NC(=O)[C@H](CCCCN)NC(=O)[C@H](C)NC(=O)[C@H](Cc1c[nH]c2ccccc12)NC(=O)[C@H](CCC(N)=O)NC(=O)[C@H](CC(C)C)NC(=O)[C@@H](N)C(C)C)[C@@H](C)O)C(=O)N[C@@H](CCCCN)C(=O)N[C@@H](CO)C(=O)N[C@@H](CC(N)=O)C(=O)O [15-mer peptide, VLQWAKKGYYTMKSN]","compromise of the immune system, as determined by the CD4/CD8 ratio",CD4+ and CD8+ cells,did not result in compromise of the immune system
AKKGYY (not fully specified (C-terminus)) [KGYY6],IFNγ,[2],varying degrees of reduction
same,IL-2,[2],varying degrees of reduction
same,IL-17A,[2],varying degrees of reduction
YKNVKQMAYWLTGKS [scrambled 15-mer peptide],effect on blood glucose,NOD mice [3],no effect
